The values below come from patent US20180289637A1, “SUBSTITUTED CYCLOHEXANONES” (CLEXIO BIOSCIENCES LTD., priority 2016, published 2018).

Series [1] in a line: Stability of alpha-d2-(R/S)-ketamine in phosphate-buffered saline at various pH levels. In kind it is physicochemical. The protocol:
Incubations of (d2) (R/S)-ketamine (e.g., 1 μM) with PBS (pH 2.0, 7.4 and 8.4) were carried out using a Tecan Liquid Handling System (Tecan), or equivalent, at 37±1° C. in 0.2-mL incubation mixtures (final volume) containing PBS, at the final concentrations indicated in a 96-well plate format. The test article was added to the incubation mixtures in water. […] Incubations were carried out in triplicate with an exception for zero-time samples (which were incubated in quadruplicate). The samples were centrifuged (e.g., 920×g for 10 min at 10° C.) and the supernatant fractions analyzed by LC-MS/MS. Non-deuterated (d0) (R/S)-ketamine was used as an internal standard. The amount of unchanged test article and formation of non-deuterated (d0) (R/S)-ketamine was monitored based on peak area ratio of the analyte/internal standard.

For a further series, the system named is NMDA receptor. The settings on record: inhibition of MK-801 binding; cited from earlier work.
Series [2] can be described thus: In vitro metabolism in rat liver microsomes. The settings on record: 15 min, 10 μM, listed as d2 S-ketamine. Here is the method:
(§1) Incubations were initiated by the addition of nicotinamine adenine dinucleotide phosphate (NADPH, 1 mM) and terminated by the addition of methanol. Samples were vortex mixed, stored on ice, and the samples were centrifuged at 1400×g for 5 minutes. Supernatants were removed from the microsome pellets and stored in new tubes at approximately −20° C. until analysis.
(§2) Metabolites generated in microsome incubation samples were characterized by LC-MS/MS using a LTQ Orbitrap XL with electrospray ionization in positive ion mode. Semi-quantitation of the metabolites present in the samples was based on LC MS peak areas of the putative metabolites.
For orientation: Liver microsomes are a subcellular fraction often used to study metabolism.

For the next series, the system named is C57Bl/6 strain mice. Briefly: Tail Suspension Test (mice), Example 13. The settings on record: 120 mg/kg oral gavage.
Series [3] relates to SD male rats. Briefly: Forced Swim Test (rats), Example 12.
Series [4] can be described thus: In Vitro Liver Microsomal Stability Assay. The settings on record: 1 μM, 0.5 mg per mL liver microsomal protein, about 37° C.
Experimental: Test articles were added for a final assay concentration of 1 μM and incubated at about 37° C. Reactions were started by addition of the cofactor, and were stopped at four designated time points (0, 15, 30 and 60 min) by the addition of an equal volume of stop reagent (e.g., acetonitrile containing an internal standard, 0.2 mL). Samples were then centrifuged at 920×g centrifugal force for 10 min at 10° C. to precipitate the proteins. Supernatants were analysed by LC/MS/MS.
Series [5] can be described thus: Oral Single Dose PK Study in Rats. Here is the method: Male SD rats, 3 per timepoint, alternative timepoints, were used. […] Plasma was sampled at 10 min, 30 min, 1 h, 2 h, 3 h, 4 h, 7 h, 12 h, 24 h, and 30 h. The PK of the parent compound (deuterated and non-deuterated), as well as norketamine (deuterated and non-deuterated), 6-OH-norketamine (deuterated and non-deuterated), and dehydronorketamine (deuterated and non-deuterated) were analyzed.

The subject of series [6] is SD male rats. Briefly: Forced Swim Test (rats), Example 14. In kind it is in vivo. Here is the method:
The compounds were prepared by a chemist and coded, so the researcher was blinded to the treatment.

Series [7] can be described thus: In vitro metabolism in human liver microsomes. The settings on record: 30 min, 10 μM, listed as d2 S-ketamine. Here is the method:
as §1, §2

The conditions of series [8]: in vivo; cited from earlier work.
Where [9] appears, read: male, SD, rat, plasma, po, 15 mg/kg.
[10] abbreviates: male, SD, rat, plasma, po, 15 mg/kg, AUC0-t of Esketamine (deuterated and non-deuterated), 15 mg/kg p.o., rats.
Setting [11] is: male, SD, rat, plasma, po, 15 mg/kg, AUC0-t, 15 mg/kg p.o., male SD rats.
Setting [12] is: male, SD, rat, plasma, po, 60 mg/kg.
The mark [13] stands for this setting: male, SD, rat, plasma, po, 60 mg/kg, AUC0-t of Esketamine (deuterated and non-deuterated), 60 mg/kg p.o., rats.
[14] abbreviates: male, SD, rat, plasma, po, 60 mg/kg, AUC0-t, 60 mg/kg p.o., male SD rats.

Regarding `[2H]C1([2H])CCCC(NC)(c2ccccc2Cl)C1=O` (racemic) [d2-ketamine, alpha-d2-(R/S)-ketamine], in [1] (PBS pH 2.0, 37±1° C.), the “Mean percent remaining (0 min)” value was found to be 100%, the “Mean percent remaining (30 min)” value turned out to be 94.6%, the “Mean percent remaining (60 min)” value was 98.8% and the “Mean percent remaining (120 min)” value is recorded as 93.9%. In addition, in series [1] (PBS pH 7.4, 37±1° C.), the “Mean percent remaining (0 min)” value is 100%, the “Mean percent remaining (30 min)” value turned out to be 98.3%, the “Mean percent remaining (60 min)” value is on record as 99.0% and the “Mean percent remaining (120 min)” value was 96.0%. Also, in series [1] (PBS pH 8.4, 37±1° C.), the “Mean percent remaining (0 min)” value was 100%, the “Mean percent remaining (30 min)” value came out at 96.4%, the “Mean percent remaining (60 min)” value is 99.6% and the “Mean percent remaining (120 min)” value amounted to 95.1%.
As for `N[C@]1(c2ccccc2Cl)CCCCC1=O` [(S)-norketamine], in the series on NMDA receptor, the “affinity for the NMDA receptor relative to the (R)-enantiomer” value is listed as 8 times.
What is called Cmax is the peak of the concentration-time curve. Broadly, the AUC(0-t) is the area under the concentration-time curve up to a stated or last time point. Read a low AUC(0-t) as less exposure. Take `[2H]C1([2H])CCC[C@](NC)(c2ccccc2Cl)C1=O` [Example 1, (2S)-2-(2-chlorophenyl)-6,6-dideuterio-2-[deuterio(methyl)amino]cyclohexanone, deuterium chloride]: the “% Peak Area, component S-ketamine (parent remaining)” value in [2] amounted to 2.6%; in [7], 33.6%. Moreover, the adverse clinical symptoms entry in the series on C57Bl/6 strain mice is “adverse clinical symptoms of vocalization, ataxia and drowsiness”. Also, the “reduction in immobility time” value in the series on SD male rats [3] (120 mg/kg p.o., 75-90 min after the treatment) is reported as around 25%. Further, in the series with SD male rats [3] (60 or 120 mg/kg p.o., 75-90 min after the treatment), the “antidepressant-like effect on immobility time (in words)” value is on record as “dose-response trend”. The “increase in degradation half-life as compared to non-isotopically enriched ketamine” value in [4] is 18%. Moreover, in series [5] (15 and 60 mg/kg p.o., rats), the “6-OH norketamine levels (in words)” value is “lower”. For the same compound, the “Dehydronorketamine as metabolite (in words)” value in series [5] (15 and 60 mg/kg p.o., rats) is listed as “minor metabolite”. The “Norketamine levels as compared to esketamine (in words)” value in series [5] (15 and 60 mg/kg p.o., rats) is recorded as “higher”. Besides, the Cmax in [5] (setting [9]) was found to be 136 ng/mL; in [5] (setting [12]), 163 ng/mL. Moreover, the exposure AUC(0-t) in series [5] (setting [10]) came to 114 ng·h/mL; in series [5] (setting [11]) it was 114 ng·h/mL; in [5] (setting [13]), 268 ng·h/mL; in series [5] (setting [14]), 268 ng·h/mL. Further, the “plasma exposure to the parent compound (in words)” value in series [5] (single oral administration of 15 or 60 mg/kg, male SD rats, S-ketamine D2 vs S-ketamine) was “essentially unchanged”. Also, the “effect at 30 mg/kg (in words)” value in the series with SD male rats [6] (30 min before the test) is reported as “less pronounced compared to the lower dose”.
Take `CNC1(c2ccccc2Cl)CCCCC1=O` (racemic) [Ketamine, ketamine, reference compound]: the “reduction in immobility time by manual counting” value in the series with SD male rats [3] (30 mg/kg i.p., 30 min before test) turned out to be 54%. The elimination half-life in series [8] was 2 to 3 h.
By Tmax is commonly meant the time from dosing to the highest level. As to `CN[C@]1(c2ccccc2Cl)CCCCC1=O` [Esketamine, S-ketamine, reference compound], the adverse clinical symptoms entry with C57Bl/6 strain mice was “adverse clinical symptoms of vocalization, ataxia and drowsiness”. In the series with C57Bl/6 strain mice (20 minutes after the oral gavage), the mortality entry is given as “One of the animals was found dead”. In addition, in series [5] (15 and 60 mg/kg p.o., rats), the “Dehydronorketamine as metabolite (in words)” value is reported as “minor metabolite”. Further, the Cmax in series [5] (setting [9]) was found to be 200 ng/mL; in series [5] (setting [12]) it was 165 ng/mL. Also, the Tmax in series [5] (setting [9]) is 0.5 h. Also, the AUC(0-t) was determined as 183 ng·h/mL in [5] (setting [10]); 183 ng·h/mL in [5] (setting [11]); 498 ng·h/mL in [5] (setting [13]); 311 ng·h/mL in series [5] (male, SD, rat, plasma, po, 60 mg/kg, AUC0-t of Esketamine, value in brackets (24 hr time point excluded), 60 mg/kg p.o., rats); 498 ng·h/mL in series [5] (setting [14]); 311 ng·h/mL in series [5] (male, SD, rat, plasma, po, 60 mg/kg, AUC0-t, 24 hr time point excluded, 60 mg/kg p.o., 24 hr time point excluded (7 hr was BLQ)). Further, the “reduction in immobility time” value in the series with SD male rats [6] (30 mg/kg, 30 min before the test (route printed as orally, i.p. in table)) was determined as 60%.
With `NC1(c2ccccc2Cl)CCCCC1=O` (racemic) [norketamine, N-desmethylketamine], the elimination half-life in series [8] was 4 h.
